The record followed here is PubChem BioAssay AID330 (DTP/NCI, 2004).

This assay has as its system P388 leukemia ip, CD2F1 mice, survival T/C. Description: NCI In Vivo Anticancer Drug Screen. Data for tumor model P388 Leukemia (intraperitoneal) in CD2F1 (CDF1) mice. The settings on record: endpoint: median survival time, higher = longer survival. Summed up: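 Mice carrying the transplanted tumor received test compound or vehicle. Survival was recorded in each group, and the value is the treated-group measurement divided by that of the vehicle-treated control group.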

[1] abbreviates: dose: 50.0 mg/kg/injection, schedule: Q01DX009 (ip), vehicle: saline with Tween-80.
The mark [2] stands for this setting: dose: 100.0 mg/kg/injection, schedule: Q01DX009 (ip), vehicle: saline with Tween-80.
Where [3] appears, read: dose: 200.0 mg/kg/injection, schedule: Q01DX009 (ip), vehicle: saline with Tween-80.
Setting [4] is: dose: 50.0 mg/kg/injection, schedule: Q01DX009 (ip), vehicle: Klucel (hydroxypropylcellulose) (HPC).
[5] abbreviates: dose: 100.0 mg/kg/injection, schedule: Q01DX009 (ip), vehicle: Klucel (hydroxypropylcellulose) (HPC).
Setting [6] is: dose: 200.0 mg/kg/injection, schedule: Q01DX009 (ip), vehicle: Klucel (hydroxypropylcellulose) (HPC).
Where [7] appears, read: dose: 50.0 mg/kg/injection, schedule: Q01DX005 (ip), vehicle: saline.
Setting [8] is: dose: 100.0 mg/kg/injection, schedule: Q04DX002 (ip), vehicle: saline with Tween-80.
The mark [9] stands for this setting: dose: 200.0 mg/kg/injection, schedule: Q04DX002 (ip), vehicle: saline with Tween-80.
Setting [10] is: dose: 50.0 mg/kg/injection, schedule: Q01DX009 (ip), vehicle: saline.
[11] abbreviates: dose: 100.0 mg/kg/injection, schedule: Q01DX009 (ip), vehicle: saline.
The mark [12] stands for this setting: dose: 200.0 mg/kg/injection, schedule: Q01DX009 (ip), vehicle: saline.
Setting [13] is: dose: 100.0 mg/kg/injection, schedule: Q01DX005 (ip), vehicle: saline.
Setting [14] is: dose: 100.0 mg/kg/injection, schedule: Q04DX003 (ip), vehicle: saline with Tween-80.
The mark [15] stands for this setting: dose: 200.0 mg/kg/injection, schedule: Q04DX003 (ip), vehicle: saline with Tween-80.
Setting [16] is: dose: 400.0 mg/kg/injection, schedule: Q04DX003 (ip), vehicle: saline with Tween-80.

Values joined by “and” are separate entries in the source; they are usually repeats but may differ in a detail not shown here. Identical values can stand only once. Toxic doses and inconclusive results are not listed.

Regarding `O=C(CC1C2CC3CC(C2)CC1C3)C1C2CC3CC(C2)CC1C3` (centres undefined), the T/C is, setting by setting: under setting [1], 97 % of control; under setting [2], 97 % of control; under setting [3], 97 % of control.
Regarding `Nc1nc2c(c(=O)[nH]1)NC(CCNc1ccc(C(=O)O)cc1)CN2` (centres undefined), the T/C was 104 % of control (dose: 12.5 mg/kg/injection, schedule: Q01DX009 (ip), vehicle: saline with Tween-80); 90 % of control (dose: 12.5 mg/kg/injection, schedule: Q04DX003 (ip), vehicle: saline with Tween-80); 113 % of control (dose: 25.0 mg/kg/injection, schedule: Q01DX009 (ip), vehicle: saline with Tween-80); 95 % of control (dose: 25.0 mg/kg/injection, schedule: Q04DX003 (ip), vehicle: saline with Tween-80); 113 % of control (dose: 50.0 mg/kg/injection, schedule: Q04DX003 (ip), vehicle: saline with Tween-80).
Take `COC(=O)C(N)=NCC(C)NC(=O)c1ccccc1` (centres undefined): the T/C by setting is: under setting [4], 99 % of control; under setting [5], 101 % of control; under setting [6], 100 % of control.
Take `Cc1cc[n+](CCc2c[nH]c3ccccc23)cc1C`: the T/C reads like this: (dose: 12.5 mg/kg/injection, schedule: Q01DX005 (ip), vehicle: saline) 100 % of control; (dose: 25.0 mg/kg/injection, schedule: Q01DX005 (ip), vehicle: saline) 97 % of control; under setting [7], 105 % of control and 95 % of control.
`CC(C)(C)c1cc(C(c2ccccc2)(c2ccccc2)c2ccccc2)cc2c1OP(F)(c1ccccc1)(c1ccccc1)N2`: the T/C under setting [1] is 91 % of control, the T/C under setting [2] is 95 % of control and the T/C under setting [3] is 91 % of control.
For the compound `CSc1ccccc1P(c1ccccc1)c1ccccc1`, the T/C reads like this: under setting [4], 109 % of control; under setting [5], 115 % of control; under setting [6], 105 % of control.
For the compound `c1ccc2c(c1)CC/C2=N\OCC1CO1` (centres undefined), the T/C was 102 % of control under setting [8]; 104 % of control under setting [9]; 106 % of control (dose: 400.0 mg/kg/injection, schedule: Q04DX002 (ip), vehicle: saline with Tween-80).
Turning to `O=C1Oc2ccccc2CC1C(=O)c1ccc([N+](=O)[O-])cc1` (centres undefined), the T/C was 99 % of control (dose: 50.0 mg/kg/injection, schedule: Q01DX005 (ip), vehicle: saline with Tween-80); 106 % of control (dose: 100.0 mg/kg/injection, schedule: Q01DX005 (ip), vehicle: saline with Tween-80); 103 % of control (dose: 200.0 mg/kg/injection, schedule: Q01DX005 (ip), vehicle: saline with Tween-80).
As to `COC(OC)C1(O)CC(C(C)C)OC(=O)N1` (centres undefined), the T/C is, setting by setting: (dose: 100.0 mg/kg/injection, schedule: Q04DX003 (ip), vehicle: saline) 100 % of control; (dose: 200.0 mg/kg/injection, schedule: Q04DX003 (ip), vehicle: saline) 108 % of control; (dose: 400.0 mg/kg/injection, schedule: Q04DX003 (ip), vehicle: saline) 100 % of control.
For `COC1=C(NC(C)=O)C(=O)c2nc(-c3nc(C(=O)O)c(C)c(-c4ccc(OC)c(OC)c4O)c3N)ccc2C1=O`, the T/C was 119 % of control (dose: 12.5 mg/kg/injection, schedule: Q01DX009 (ip), vehicle: distilled water + Tween-80); 118 % of control (dose: 25.0 mg/kg/injection, schedule: Q01DX009 (ip), vehicle: distilled water + Tween-80); 119 % of control (dose: 50.0 mg/kg/injection, schedule: Q01DX009 (ip), vehicle: distilled water + Tween-80); 119 % of control (dose: 100.0 mg/kg/injection, schedule: Q01DX009 (ip), vehicle: distilled water + Tween-80).
Turning to `O=c1c2ccccc2nc2n1OCC2`, the T/C was 103 % of control under setting [10], 111 % of control under setting [11] and 111 % of control under setting [12].
Take `CCOc1c(N=Nc2ccccc2[N+](=O)[O-])c(C)nn1C(N)=S`: the T/C (dose: 15.0 mg/kg/injection, schedule: Q01DX005 (ip), vehicle: Klucel + Tween-80) is 100 % of control; the T/C (dose: 30.0 mg/kg/injection, schedule: Q01DX005 (ip), vehicle: Klucel + Tween-80) is 89 % of control; the T/C (dose: 60.0 mg/kg/injection, schedule: Q01DX005 (ip), vehicle: Klucel + Tween-80) is 86 % of control and 90 % of control.
Consider `C[Si]c1ccccc1CN(C)C`, for which the T/C runs as follows: under setting [7], 106 % of control; under setting [13], 102 % of control.
For the compound `CO/C1=C\C(C)=C\C(C)C(O)C(C)C/C(C)=C/C=C/C(OC)C(C(C)C(O)C(C)C2(O)CC(O)C(C)C(C(C)C)O2)OC1=O` (centres undefined), the T/C is 104 % of control (dose: 1.25 mg/kg/injection, schedule: Q01DX005 (ip), vehicle: other); 104 % of control (dose: 2.5 mg/kg/injection, schedule: Q01DX005 (ip), vehicle: other); 113 % of control (dose: 5.0 mg/kg/injection, schedule: Q01DX005 (ip), vehicle: other).
On to `CN(C)P(=O)(N(C)C)N1CCC1`, for which the T/C runs as follows: under setting [10], 104 % of control; under setting [11], 112 % of control.
For the compound `CCCN=C(C)NO`, the T/C by setting is: under setting [7], 98 % of control; under setting [13], 101 % of control; (dose: 200.0 mg/kg/injection, schedule: Q01DX005 (ip), vehicle: saline) 102 % of control.
As for `COC1(OC)CC(CCl)OC1(OC)OC` (centres undefined), the T/C was 103 % of control (dose: 60.0 mg/kg/injection, schedule: Q01DX005 (ip), vehicle: saline); 103 % of control (dose: 120.0 mg/kg/injection, schedule: Q01DX005 (ip), vehicle: saline); 101 % of control (dose: 240.0 mg/kg/injection, schedule: Q01DX005 (ip), vehicle: saline).
Regarding `CC(=O)Nc1nc(N)nc2c1CC(N(Cc1ccc(Cl)cc1)C(C)=O)CC2` (centres undefined), the T/C under setting [1] was 108 % of control, the T/C under setting [2] was 119 % of control and the T/C under setting [3] is 154 % of control.
On to `CC(=O)CCNc1ccc(O)c2c1C(=O)c1ccccc1C2=O`, for which the T/C (dose: 25.0 mg/kg/injection, schedule: Q04DX002 (ip), vehicle: saline with Tween-80) was 100 % of control; the T/C (dose: 50.0 mg/kg/injection, schedule: Q04DX002 (ip), vehicle: saline with Tween-80) is 101 % of control; the T/C under setting [8] is 94 % of control; the T/C under setting [9] was 100 % of control.
Take `O=C(N=C=S)c1ccccc1`: the T/C by setting is: (dose: 100.0 mg/kg/injection, schedule: Q04DX003 (ip), vehicle: other) 90 % of control; (dose: 200.0 mg/kg/injection, schedule: Q04DX003 (ip), vehicle: other) 100 % of control; (dose: 400.0 mg/kg/injection, schedule: Q04DX003 (ip), vehicle: other) 109 % of control.
`CCCCc1cc(-c2ccc(C)cc2)c(CCCC)c2c1-c1cccc3cccc-2c13`: the T/C under setting [14] is 98 % of control, the T/C under setting [15] was 91 % of control and the T/C under setting [16] was 92 % of control.
In the case of `Cc1cc(=O)oc2c(CNC(C(=O)O)C(C)C)c(O)ccc12` (centres undefined), the T/C was 91 % of control (dose: 60.0 mg/kg/injection, schedule: Q01DX005 (ip), vehicle: Klucel (hydroxypropylcellulose) (HPC)) and 91 % of control (dose: 120.0 mg/kg/injection, schedule: Q01DX005 (ip), vehicle: Klucel (hydroxypropylcellulose) (HPC)).
Turning to `c1ccc2c(c1)CCCN2c1nc(N2CCCC2)nc(N2CCOCC2)n1`, the T/C under setting [10] was 99 % of control, the T/C under setting [11] is 89 % of control and the T/C under setting [12] was 92 % of control.
As to `CC(C)(/C=C/c1ccccc1)N=Cc1ccccc1`, the T/C (dose: 60.0 mg/kg/injection, schedule: Q01DX005 (ip), vehicle: saline with Tween-80) was 100 % of control; the T/C (dose: 120.0 mg/kg/injection, schedule: Q01DX005 (ip), vehicle: saline with Tween-80) is 104 % of control; the T/C (dose: 240.0 mg/kg/injection, schedule: Q01DX005 (ip), vehicle: saline with Tween-80) is 98 % of control.
Take `OC1C2CCC1C(N1CCOCC1)CC2` (centres undefined): the T/C is, setting by setting: (dose: 50.0 mg/kg/injection, schedule: Q01DX009 (ip), vehicle: saline sonified) 100 % of control; (dose: 100.0 mg/kg/injection, schedule: Q01DX009 (ip), vehicle: saline sonified) 100 % of control; (dose: 200.0 mg/kg/injection, schedule: Q01DX009 (ip), vehicle: saline sonified) 105 % of control.
With `CC1CCCCC1NC(=O)NCCOC(=O)OCCNC(=O)NC1CCCCC1C` (centres undefined), the T/C runs as follows: under setting [14], 90 % of control; under setting [15], 86 % of control; under setting [16], 86 % of control.
